Molecules are shown by their SMILES. Some results are limits rather than exact numbers.

The series is described as follows: human liver microsome (HLM) metabolic stability assay. Type of series: in vitro ADME. To be noted: human liver microsomes; % hepatic blood flow calculated from t1/2. In outline:
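Compounds at 1 uM incubated with human liver microsomes plus NADPH at 37° C., sampled at 0, 5, 15, 30 and 60 min into cold acetonitrile and quantified by LC/MS/MS. t½ from the slope of ln % remaining vs time; CLint, CLh and % Qh derived from it (n=1).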
As to `Cc1cccc(-c2cccc(-n3ncc(C(=O)O)c3OC(C)C)n2)c1OCc1ccc2c(c1)CCN(C1CCOCC1)C2` [Compound 1, 5-isopropoxy-1-(6-{3-methyl-2-[2-(tetrahydro-pyran-4-yl)-1,2,3,4-tetrahydro-isoquinolin-6-ylmethoxy]-phenyl}-pyridin-2-yl)-1H-pyrazole-4-carboxylic acid], the “HLM (% Qh)” value was <24 % Qh. For `Cc1cccc(-c2cccc(-n3ncc(C(=O)O)c3OC(C)C)n2)c1OCc1ccc2c(c1)CCN(C1CCC(F)(F)CC1)C2` [Compound 2] the value was <24 % Qh.

Take `COc1c(C(=O)O)cnn1-c1cccc(-c2cccc(C)c2OCc2ccc3c(c2)CCN(C2CCOCC2)C3)n1` [Compound 3]: the “HLM (% Qh)” value is recorded as <24 % Qh. Then `Cc1cccc(-c2cccc(-n3ncc(C(=O)O)c3OC(C)C)n2)c1OCc1ccc2c(c1)CCN(CC1CC(F)(F)C1)C2` [Compound 4, 1-(6-{2-[2-(3,3-difluoro-cyclobutylmethyl)-1,2,3,4-tetrahydro-isoquinolin-6-ylmethoxy]-3-methyl-phenyl}-pyridin-2-yl)-5-isopropoxy-1H-pyrazole-4-carboxylic acid], with <24 % Qh; and `COc1c(C(=O)O)cnn1-c1cccc(-c2cccc(C)c2OCc2ccc3c(c2)CCN(C2CCC(F)(F)CC2)C3)n1` [Compound 5], with <24 % Qh; and `CCOc1c(C(=O)O)cnn1-c1cccc(-c2cccc(C)c2OCc2ccc3c(c2)CCN(C2COC2)C3)n1` [Compound 6], with <24 % Qh. Take `COc1c(C(=O)O)cnn1-c1cccc(-c2cccc(C)c2OCc2ccc3c(c2C)CCN(CC(C)(C)C)C3)n1` [Compound 30]: the “HLM (% Qh)” value was <24 % Qh. Turning to `COc1c(C(=O)O)cnn1-c1cccc(-c2cccc(C)c2OCc2ccc3c(c2C)CCN(C2CCOC2)C3)n1` (stereo not drawn) [Compound 31], the “HLM (% Qh)” value is <24 % Qh. For `CCOc1c(C(=O)O)cnn1-c1cccc(-c2cccc(C)c2OCc2ccc3c(c2)CCN(C(C)C)C3)n1` [Compound 32] the value was <24 % Qh; for `COc1c(C(=O)O)cnn1-c1cccc(-c2cccc(C)c2OCc2ccc3c(c2)CCN(CC(C)(C)O)C3)n1` [Compound 33, 1-(6-{2-[2-(2-hydroxy-2-methyl-propyl)-1,2,3,4-tetrahydro-isoquinolin-6-ylmethoxy]-3-methyl-phenyl}-pyridin-2-yl)-5-methoxy-1H-pyrazole-4-carboxylic acid], <24 % Qh; for `CCOc1c(C(=O)O)cnn1-c1cccc(-c2cccc(C)c2OCc2ccc3c(c2)CCN(CC2(C)COC2)C3)n1` [Compound 34], <24 % Qh. Then `CCOc1c(C(=O)O)cnn1-c1cccc(-c2cccc(C)c2OCc2ccc3c(c2)CCN(C2CCOC2)C3)n1` (stereo not drawn) [Compound 35], with <24 % Qh; and `CCOc1c(C(=O)O)cnn1-c1cccc(-c2cccc(C)c2OCc2ccc3c(c2)CCN(C2CCCOC2)C3)n1` (stereo not drawn) [Compound 36], with <24 % Qh. Then `Cc1cccc(-c2cccc(-n3ncc(C(=O)O)c3OC(C)C)n2)c1OCc1ccc2c(c1)CCN(C(C)C)C2` [Compound 37], with <24 % Qh; and `COCC(C)N1CCc2cc(COc3c(C)cccc3-c3cccc(-n4ncc(C(=O)O)c4OC(C)C)n3)ccc2C1` (stereo not drawn) [Compound 38], with <24 % Qh. Take `Cc1cccc(-c2cccc(-n3ncc(C(=O)O)c3OC(C)C)n2)c1OCc1ccc2c(c1)CCN(C1COC1)C2` [Compound 39]: the “HLM (% Qh)” value is <24 % Qh. For `Cc1cccc(-c2cccc(-n3ncc(C(=O)O)c3OC(C)C)n2)c1OCc1ccc2c(c1)CCN(CC1(C)COC1)C2` [Compound 40] the value was <24 % Qh. In the case of `Cc1cccc(-c2cccc(-n3ncc(C(=O)O)c3OC(C)C)n2)c1OCc1ccc2c(c1)CCN(C1CCOC1)C2` (stereo not drawn) [Compound 41], the “HLM (% Qh)” value was <24 % Qh. Take `Cc1cccc(-c2cccc(-n3ncc(C(=O)O)c3OC(C)C)n2)c1OCc1ccc2c(c1)CCN(C1CCCOC1)C2` (stereo not drawn) [Compound 42]: the “HLM (% Qh)” value is on record as <24 % Qh. Then `Cc1cccc(-c2cccc(-n3ncc(C(=O)O)c3OC(C)C)n2)c1OCc1ccc2c(c1C)CCN(C(C)C)C2` [Compound 43], with 26 % Qh. Then `COCC(C)N1CCc2c(ccc(COc3c(C)cccc3-c3cccc(-n4ncc(C(=O)O)c4OC(C)C)n3)c2C)C1` (stereo not drawn) [Compound 44], with <24 % Qh; and `Cc1cccc(-c2cccc(-n3ncc(C(=O)O)c3OC(C)C)n2)c1OCc1ccc2c(c1C)CCN(C1COC1)C2` [Compound 45], with <24 % Qh; and `Cc1cccc(-c2cccc(-n3ncc(C(=O)O)c3OC(C)C)n2)c1OCc1ccc2c(c1C)CCN(CC1(C)COC1)C2` [Compound 46], with <24 % Qh. As to `CCOc1c(C(=O)O)cnn1-c1cccc(-c2cccc(C)c2OCc2ccc3c(c2)CCN(C(C)CF)C3)n1` (stereo not drawn) [Compound 49, 5-ethoxy-1-(6-{2-[2-(2-fluoro-1-methyl-ethyl)-1,2,3,4-tetrahydro-isoquinolin-6-ylmethoxy]-3-methyl-phenyl}-pyridin-2-yl)-1H-pyrazole-4-carboxylic acid], the “HLM (% Qh)” value is reported as 48 % Qh. Then `CCOc1c(C(=O)O)cnn1-c1cccc(-c2cccc(Cl)c2OCc2ccc3c(c2)CCNC3)n1` [Compound 50], with 40 % Qh; and `CCOc1c(C(=O)O)cnn1-c1cccc(-c2cccc(Cl)c2OCc2ccc3c(c2)CCN(C2COC2)C3)n1` [Compound 51], with <24 % Qh; and `COc1c(C(=O)O)cnn1-c1cccc(-c2cc(F)cc(F)c2OCc2ccc3c(c2)CCN(C2COC2)C3)n1` [Compound 52], with <24 % Qh. Then `COc1c(C(=O)O)cnn1-c1cccc(-c2cc(F)cc(F)c2OCc2ccc3c(c2)CCN(C2CCOCC2)C3)n1` [Compound 53], with <24 % Qh. As to `CCOc1c(C(=O)O)cnn1-c1cccc(-c2cccc(Cl)c2OCc2ccc3c(c2)CCN(C2CCOCC2)C3)n1` [Compound 54], the “HLM (% Qh)” value is recorded as <24 % Qh. Then `CCOc1c(C(=O)O)cnn1-c1cccc(-c2cccc(Cl)c2OCc2ccc3c(c2)CCN(C2CCOC2)C3)n1` (stereo not drawn) [Compound 55], with <24 % Qh; and `CCOc1c(C(=O)O)cnn1-c1cccc(-c2cccc(Cl)c2OCc2ccc3c(c2)CCN(C(C)CO)C3)n1` (stereo not drawn) [Compound 56], with <24 % Qh.

As for `CCOc1c(C(=O)O)cnn1-c1cccc(-c2cccc(Cl)c2OCc2ccc3c(c2)CCN(C2CCC(F)(F)CC2)C3)n1` [Compound 57], the “HLM (% Qh)” value is recorded as <24 % Qh. In the case of `CCOc1c(C(=O)O)cnn1-c1cccc(-c2cccc(Cl)c2OCc2ccc3c(c2)CCN(CCOC)C3)n1` [Compound 58], the “HLM (% Qh)” value is on record as <24 % Qh.

For `COc1c(C(=O)O)cnn1-c1cccc(-c2cccc(C)c2OCc2ccc3c(c2)CCN(C2CCOC(C)(C)C2)C3)n1` (stereo not drawn) [Compound 61], the “HLM (% Qh)” value is <24 % Qh.

Consider `COc1c(C(=O)O)cnn1-c1cccc(-c2cccc(C)c2OCc2ccc3c(c2)CCN(C2CC(C)OC(C)C2)C3)n1` (stereo not drawn) [Compound 62], for which the “HLM (% Qh)” value is <24 % Qh. For `COc1c(C(=O)O)cnn1-c1cccc(-c2cccc(F)c2OCc2ccc3c(c2)CCN(C2CCOCC2)C3)n1` [Compound 63], the “HLM (% Qh)” value is reported as <24 % Qh.

Regarding `CCOc1c(C(=O)O)cnn1-c1cccc(-c2cccc(C)c2OCc2ccc3c(c2)CCN(C2CCOCC2C)C3)n1` (stereo not drawn) [Compound 64], the “HLM (% Qh)” value is <24 % Qh. Then `CCOc1c(C(=O)O)cnn1-c1cccc(-c2cccc(C)c2OCc2ccc3c(c2)CCN(C2CC(C)OC(C)C2)C3)n1` (stereo not drawn) [Compound 65], with <24 % Qh; and `CCOc1c(C(=O)O)cnn1-c1cccc(-c2cccc(C)c2OCc2ccc3c(c2)CCN(C2CCOC(C)(C)C2)C3)n1` (stereo not drawn) [Compound 66], with <24 % Qh; and `CCOc1c(C(=O)O)cnn1-c1cccc(-c2cccc(C)c2OCc2ccc3c(c2)CCN(C2CC(C)(C)OC(C)(C)C2)C3)n1` [Compound 67], with <24 % Qh. With `CCOc1c(C(=O)O)cnn1-c1cccc(-c2cccc(C)c2OCc2ccc3c(c2)CCN(CC2CCOC2)C3)n1` (stereo not drawn) [Compound 68], the “HLM (% Qh)” value is <24 % Qh. For the compound `CCOc1c(C(=O)O)cnn1-c1cccc(-c2cccc(C)c2OCc2ccc3c(c2)CCN(CC2CCOCC2)C3)n1` [Compound 69], the “HLM (% Qh)” value was <24 % Qh.

Take `CCOc1c(C(=O)O)cnn1-c1cccc(-c2cccc(C)c2OCc2ccc3c(c2)CCN(C(C)CS(C)(=O)=O)C3)n1` (stereo not drawn) [Compound 70]: the “HLM (% Qh)” value is listed as <24 % Qh. For `CCOc1c(C(=O)O)cnn1-c1cccc(-c2cccc(C)c2OCc2ccc3c(c2)CCN(C2CCOC2C)C3)n1` (stereo not drawn) [Compound 71], the “HLM (% Qh)” value is listed as <24 % Qh. For `COc1c(C(=O)O)cnn1-c1cccc(-c2cccc(C)c2OCc2ccc3c(c2)CCN(CC2CC2(F)F)C3)n1` (stereo not drawn) [Compound 72, 1-(6-{2-[2-(2,2-difluoro-cyclopropylmethyl)-1,2,3,4-tetrahydro-isoquinolin-6-ylmethoxy]-3-methyl-phenyl}-pyridin-2-yl)-5-methoxy-1H-pyrazole-4-carboxylic acid] the value was 47 % Qh; for `COc1c(C(=O)O)cnn1-c1cccc(-c2cccc(C)c2OCc2ccc3c(c2)CCN(C2CC(C)(C)OC(C)(C)C2)C3)n1` [Compound 73], 36 % Qh; for `COc1c(C(=O)O)cnn1-c1cccc(-c2cccc(C)c2OCc2ccc3c(c2)CCN(CCS(C)(=O)=O)C3)n1` [Compound 74], <24 % Qh. Then `COc1c(C(=O)O)cnn1-c1cccc(-c2cccc(C)c2OCc2ccc3c(c2)CCN(C2C4CCOC4C2(C)C)C3)n1` (stereo not drawn) [Compound 75], with 31 % Qh; and `CCOc1c(C(=O)O)cnn1-c1cccc(-c2cccc(C)c2OCc2ccc3c(c2)CCN(C2CCOCC2)C3)n1` [Compound 77], with <24 % Qh. For `CCOc1c(C(=O)O)cnn1-c1cccc(-c2cccc(C)c2OCc2ccc3c(c2)CCN(C2CCOC(C)C2)C3)n1` (stereo not drawn) [Compound 78] the value was <24 % Qh; for `CCOc1c(C(=O)O)cnn1-c1cccc(-c2cccc(C)c2OCc2ccc3c(c2)CCN(C2CCOC(CC)C2)C3)n1` (stereo not drawn) [Compound 79], <24 % Qh.

Source of the values: patent publication US8906904B2, “Alkoxy pyrazoles as soluble guanylate cyclase activators” (Boehringer Ingelheim International GmbH, priority 2012, dated 2014).
